{"source": "patent US9399626B2", "about": "“2-thiopyrimidinones” (Pfizer Inc., priority 2011, dated 2016)", "note": "Structures can show the parent of a compound that is named as a salt."}
{"target": "T1, MPO (purified from human polynuclear leukocytes) (Homo sapiens, UniProt P05164)", "T1 construct": "purified from human polynuclear leukocytes; purchased Calbiochem/EMD Biosciences; host or cells: human polynuclear leukocytes (natural source)", "T1 sequence (P05164 279-745 limits assumed)": "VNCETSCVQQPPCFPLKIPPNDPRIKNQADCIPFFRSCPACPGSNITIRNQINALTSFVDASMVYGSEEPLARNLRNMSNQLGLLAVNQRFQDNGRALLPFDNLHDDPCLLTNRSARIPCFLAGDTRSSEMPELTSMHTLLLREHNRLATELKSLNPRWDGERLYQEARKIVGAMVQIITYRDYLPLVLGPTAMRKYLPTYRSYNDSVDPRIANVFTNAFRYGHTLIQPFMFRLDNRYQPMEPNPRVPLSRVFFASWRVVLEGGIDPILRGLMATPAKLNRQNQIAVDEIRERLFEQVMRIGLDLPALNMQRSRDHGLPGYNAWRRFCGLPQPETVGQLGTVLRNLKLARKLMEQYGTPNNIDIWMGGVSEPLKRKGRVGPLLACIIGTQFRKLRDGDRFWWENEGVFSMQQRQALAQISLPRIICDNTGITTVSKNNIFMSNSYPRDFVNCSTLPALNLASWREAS", "T1 sequence (P05164 165-273 limits assumed)": "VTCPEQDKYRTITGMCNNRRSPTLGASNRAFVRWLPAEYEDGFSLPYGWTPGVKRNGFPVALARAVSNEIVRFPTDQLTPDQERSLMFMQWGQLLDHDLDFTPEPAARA", "experiment": "MPO Amplex Red Activity Assay", "type": "biochemical", "details": "Table 1, 2 μM H2O2, pH 7.4", "protocol": "(§1) MPO Amplex Red Activity Assay.\n(§2) MPO peroxidase activity was measured by monitoring the formation of resorufin generated from the oxidation of Amplex Red (10-Acetyl-3,7-dihydroxyphenoxazine) (Invitrogen, Carlsbad, Calif.) by MPO (Gomes, Fernandes et al. 2005). Assay mixtures (100 μL total volume) contained 50 mM NaPi pH 7.4, 150 mM NaCl, 1 mM DTPA (diethylenetriaminepentaacetic acid), 2% DMSO, 2 μM H2O2, 30 μM Amplex Red and the reaction was initiated by the addition of […] (purified from human polynuclear leukocytes and purchased from Calbiochem/EMD Biosciences, Gibbstown, N.J.). All assays were performed in 96-well, half-area, black, nonbinding surface, polystyrene plates (Corning) and the production of resorufin (excitation 530 nm, emission 580 nm) was monitored every 20 sec on a Spectramax M2 Microplate Spectrophotometer (Molecular Devices, Palo Alto, Calif.) equipped with Softmax Pro software (Molecular Devices, Palo Alto, Calif.). Reactions to determine the background reaction rate consisted of all assay components and 4 μL of 500 unit/mL bovine catalase (Sigma) in 50 mM KPi pH 7.0. The background rate was subtracted from each reaction progress curve. All data was analyzed using non-linear regression analysis in Microsoft Excel and Kaleidagraph (Synergy Software).\n(§3) To determine inhibitor potency (kinact/KI) against MPO, the first 600 sec of the reaction progress curves were fit to equation 1, where Vo is the initial rate in RFU/sec and t is time in seconds, to obtain the first order rate constant for enzyme inactivation (kobs) at each inhibitor concentration.\n(§4) [formula] Equation 1 is a variation of the standard equation for slow binding inhibition where the steady state velocity (Vs) is set to zero. Each kobs value was corrected for auto-inactivation of the enzyme by subtracting the kobs value for the uninhibited reaction. The corrected kobs values were then plotted versus inhibitor concentration ([I]) and fit to equation 2\n(§5) [formula] where kinact is the maximal rate of inactivation and KI is the inhibitor concentration that yields half the rate of maximal inactivation (Copeland 2005).\n(§6) Table 1 and (1A) below provides the myeloperoxidase inhibitory activity for the Examples below in accordance with the above-described assay."}
{"smiles": "COc1ccc(-c2cc(=O)[nH]c(=S)n2CCOCCNC(=N)N)c(OC)c1", "note": "[Example 140, 1-(2-{2-[6-(2,4-dimethoxyphenyl)-4-oxo-2-thioxo-3,4-dihydropyrimidin-1(2H)-yl]ethoxy}ethyl) guanidine formate]", "MPO kinact/Ki": "10400 1/s per M"}
{"smiles": "COCCn1c(-c2ccccc2Cl)cc(=O)[nH]c1=S", "note": "[Example 299, 6-(2-chlorophenyl)-1-(2-methoxyethyl)-2-thioxo-2,3-dihydropyrimidin-4(1H)-one]", "MPO kinact/Ki": "2060 1/s per M"}
{"smiles": "COc1ccc(-c2cc(=O)[nH]c(=S)n2CCC2CCNCC2)c(OC)c1", "note": "[Example 152, 6-(2,4-dimethoxyphenyl)-1-(2-piperidin-4-ylethyl)-2-thioxo-2,3-dihydropyrimidin-4(1H)-one hydrochloride]", "MPO kinact/Ki": "4770 1/s per M"}
{"smiles": "COc1ccc(C)cc1-c1cc(=O)[nH]c(=S)n1CCNC(=O)CN", "note": "[Example 120, N-{2-[6-(2-methoxy-5-methylphenyl)-4-oxo-2-thioxo-3,4-dihydropyrimidin-1(2H)-yl]ethyl} glycinamide hydrochloride]", "MPO kinact/Ki": "9720 1/s per M"}
{"smiles": "COc1ccc(-c2cc(=O)[nH]c(=S)n2CC(=O)NCC(N)=O)c(OC)c1", "note": "[Example 254, N~2~-{[6-(2,4-dimethoxyphenyl)-4-oxo-2-thioxo-3,4-dihydropyrimidin-1(2H)-yl]acetyl}glycinamide]", "MPO kinact/Ki": "5630 1/s per M"}
{"smiles": "COc1ccc(-c2cc(=O)[nH]c(=S)n2CCN)c(Cl)c1", "note": "[Example 61, 1-(2-aminoethyl)-6-(2-chloro-4-methoxyphenyl)-2-thioxo-2,3-dihydropyrimidin-4(1H)-one hydrochloride]", "MPO kinact/Ki": "3530 1/s per M"}
{"smiles": "COc1cc(-c2cc(=O)[nH]c(=S)n2CCN)c(OC)cc1C", "note": "[Example 84, 1-(2-aminoethyl)-6-(2,5-dimethoxy-4-methylphenyl)-2-thioxo-2,3-dihydropyrimidin-4(1H)-one hydrochloride]", "MPO kinact/Ki": "6630 1/s per M"}
{"smiles": "COc1ccc(-c2cc(=O)[nH]c(=S)n2C[C@H](O)CN)c(OC)c1", "note": "[Example 197, 1-[(2R)-3-amino-2-hydroxypropyl]-6-(2,4-dimethoxyphenyl)-2-thioxo-2,3-dihydropyrimidin-4(1H)-one trifluoroacetate]", "MPO kinact/Ki": "5650 1/s per M"}
{"smiles": "COc1ccc(-c2cc(=O)[nH]c(=S)n2CC(=O)NCCN)c(OC)c1", "note": "[Example 241, N-(2-aminoethyl)-2-(6-(2,4-dimethoxyphenyl)-4-oxo-2-thioxo-3,4-dihydropyrimidin-1(2H)-yl)acetamide hydrochloride]", "MPO kinact/Ki": "7060 1/s per M"}
{"smiles": "COc1ccc(-c2cc(=O)[nH]c(=S)n2CC2CCNCC2)c(OC)c1", "note": "[Example 235, 6-(2,4-dimethoxyphenyl)-1-(piperidin-4-ylmethyl)-2-thioxo-2,3-dihydropyrimidin-4(1H)-one hydrochloride]", "MPO kinact/Ki": "2690 1/s per M"}
{"smiles": "COc1ccc(OC)c(-c2cc(=O)[nH]c(=S)n2CC(N)=O)c1", "note": "[Example 2, 2-(6-(2,5-Dimethoxyphenyl)-4-oxo-2-thioxo-3,4-dihydropyrimidin-1(2H)-yl)acetamide]", "MPO kinact/Ki": "12500 1/s per M"}
{"smiles": "CCOc1ccccc1-c1cc(=O)[nH]c(=S)n1CC1CCCO1", "note": "(stereo not drawn) [Example 102, 6-(2-ethoxyphenyl)-1-(tetrahydrofuran-2-ylmethyl)-2-thioxo-2,3-dihydropyrimidin-4(1H)-one]", "MPO kinact/Ki": "4200 1/s per M"}
{"smiles": "COc1ccc(F)cc1-c1cc(=O)[nH]c(=S)n1CCN.Cl", "note": "[Example 26, 1-(2-aminoethyl)-6-(5-fluoro-2-methoxyphenyl)-2-thioxo-2,3-dihydropyrimidin-4(1H)-one hydrochloride]", "MPO kinact/Ki": "3180 1/s per M"}
{"smiles": "COCCn1c(-c2ncccc2OC)cc(=O)[nH]c1=S", "note": "[Example 20, 1-(2-methoxyethyl)-6-(3-methoxypyridin-2-yl)-2-thioxo-2,3-dihydropyrimidin-4(1H)-one]", "MPO kinact/Ki": "1330 1/s per M"}
{"smiles": "COc1cc(OC)c(-c2cc(=O)[nH]c(=S)n2CCCN=C(N)N)cc1OC", "note": "[Example 141, 2-{3-[4-oxo-2-thioxo-6-(2,4,5-trimethoxyphenyl)-3,4-dihydropyrimidin-1(2H)-yl]propyl} guanidine trifluoroacetate]", "MPO kinact/Ki": "10500 1/s per M"}
{"smiles": "COCCn1c(-c2ccc3c(c2)OCO3)cc(=O)[nH]c1=S", "note": "[Example 309, 6-(1,3-benzodioxol-5-yl)-1-(2-methoxyethyl)-2-thioxo-2,3-dihydropyrimidin-4(1H)-one]", "MPO kinact/Ki": "3160 1/s per M"}
{"smiles": "NCCn1c(-c2cccc(Br)c2)cc(=O)[nH]c1=S", "note": "[Example 183, 1-(2-aminoethyl)-6-(3-bromophenyl)-2-thioxo-2,3-dihydropyrimidin-4(1H)-one hydrochloride]", "MPO kinact/Ki": "4830 1/s per M"}
{"smiles": "COCCn1c(-c2ccc3c(c2)OCCO3)cc(=O)[nH]c1=S", "note": "[Example 326, 6-(2,3-dihydro-1,4-benzodioxin-6-yl)-1-(2-methoxyethyl)-2-thioxo-2,3-dihydropyrimidin-4(1H)-one]", "MPO kinact/Ki": "7480 1/s per M"}
{"smiles": "NCCn1c(-c2ccccc2OCC(N)=O)cc(=O)[nH]c1=S", "note": "[Example 272, 2-{2-[3-(2-aminoethyl)-6-oxo-2-thioxo-1,2,3,6-tetrahydropyrimidin-4-yl]phenoxy}acetamide trifluoroacetate]", "MPO kinact/Ki": "3160 1/s per M"}
{"smiles": "COc1ccc(-c2cc(=O)[nH]c(=S)n2CCC(=N)N)c(OC)c1", "note": "[Example 187, 3-[6-(2,4-dimethoxyphenyl)-4-oxo-2-thioxo-3,4-dihydropyrimidin-1(2H)-yl]propanimidamide trifluoroacetate]", "MPO kinact/Ki": "5640 1/s per M"}
{"smiles": "COCCn1c(-c2ccc(C#N)cc2OC)cc(=O)[nH]c1=S", "note": "[Example 70, 3-methoxy-4-[3-(2-methoxyethyl)-6-oxo-2-thioxo-1,2,3,6-tetrahydro-pyrimidin-4-yl]benzonitrile]", "MPO kinact/Ki": "1590 1/s per M"}
{"target": "T1, MPO (purified from human polynuclear leukocytes)", "experiment": "MPO Amplex Red Activity Assay", "type": "biochemical", "details": "Table 1A, 2 μM H2O2, pH 7.4", "protocol": "as §1, §2, §3, §4, §5, §6"}
{"smiles": "NC(=O)Cn1c(-c2ccccc2OCCO)cc(=O)[nH]c1=S", "note": "[Example 349, 2-(6-(2-(2-Hydroxyethoxy)phenyl)-4-oxo-2-thioxo-3,4-dihydropyrimidin-1(2H)-yl)acetamide]", "MPO kinact/Ki": "3630 1/s per M"}
{"smiles": "NC(=O)Cn1c(-c2cc(Cl)ccc2OCCO)cc(=O)[nH]c1=S", "note": "[Example 426, 2-{6-[5-chloro-2-(2-hydroxyethoxy)phenyl]-4-oxo-2-thioxo-3,4-dihydropyrimidin-1(2H)-yl}acetamide]", "MPO kinact/Ki": "4410 1/s per M"}
{"smiles": "COc1ccc(Cl)cc1-c1cc(=O)[nH]c(=S)n1CCCNC(=N)NCC(C)(F)F", "note": "[Example 451, 1-{3-[6-(5-chloro-2-methoxyphenyl)-4-oxo-2-thioxo-3,4-dihydropyrimidin-1(2H)-yl]propyl}-3-(2,2-difluoropropyl)guanidine]", "MPO kinact/Ki": "16000 1/s per M"}
{"smiles": "NCCCn1c(-c2cc(F)ccc2OCCO)cc(=O)[nH]c1=S", "note": "[Example 406, 1-(3-aminopropyl)-6-[5-fluoro-2-(2-hydroxyethoxy)phenyl]-2-thioxo-2,3-dihydropyrimidin-4(1H)-one]", "MPO kinact/Ki": "4480 1/s per M"}
{"smiles": "COc1ccc(-c2cc(=O)[nH]c(=S)n2CC(=O)NCCNCC2CC2)c(OC)c1", "note": "[Example 445, N-{2-[(cyclopropylmethyl)amino]ethyl}-2-[6-(2,4-dimethoxyphenyl)-4-oxo-2-thioxo-3,4-dihydropyrimidin-1(2H)-yl]acetamide]", "MPO kinact/Ki": "7350 1/s per M"}
{"smiles": "COc1ccc(-c2cc(=O)[nH]c(=S)n2CC(=O)N2CC[C@H](N)C2)c(OC)c1", "note": "[Example 398, 1-{2-[(3S)-3-aminopyrrolidin-1-yl]-2-oxoethyl}-6-(2,4-dimethoxyphenyl)-2-thioxo-2,3-dihydropyrimidin-4(1H)-one]", "MPO kinact/Ki": "4780 1/s per M"}
{"smiles": "COc1cc(OCC(N)=O)ccc1-c1cc(=O)[nH]c(=S)n1CCN", "note": "[Example 423, 2-{4-[3-(2-aminoethyl)-6-oxo-2-thioxo-1,2,3,6-tetrahydropyrimidin-4-yl]-3-methoxyphenoxy}acetamide]", "MPO kinact/Ki": "3290 1/s per M"}
{"smiles": "COc1ccc(-c2cc(=O)[nH]c(=S)n2CC(=O)N[C@@H]2CCNC2)c(OC)c1", "note": "[Example 388, 2-[6-(2,4-dimethoxyphenyl)-4-oxo-2-thioxo-3,4-dihydropyrimidin-1(2H)-yl]-N-[(3R)-pyrrolidin-3-yl]acetamide]", "MPO kinact/Ki": "8690 1/s per M"}
{"smiles": "NC(=O)Cn1c(-c2cccc3c2OCCO3)cc(=O)[nH]c1=S", "note": "[Example 363, 2-[6-(2,3-dihydro-1,4-benzodioxin-5-yl)-4-oxo-2-thioxo-3,4-dihydropyrimidin-1(2H)-yl]acetamide]", "MPO kinact/Ki": "9680 1/s per M"}
